Results from patent publication EP1066315B1 (University of Dundee, priority 1998, dated 2008).
Residues, ends and D or L forms follow the SMILES beside them. *: point of attachment. Fmoc = O=C(OCC1c2ccccc2-c2ccccc21)*

Experiments:
[1] = tested on: peripheral blood mononuclear cells (PBMC) / autologous TTCF specific T cell clones; experiment: TTCF antigen presentation by PBMC, read out as proliferation of autologous T cell clones; type: cell-based, human; settings: PBMC, 1 mg/ml peptide, between 30 and 60 minutes of antigen pulsing; Fig 9a
Procedure: The invention will now be described by reference to the following Examples and Figures wherein • Figure 1: Processing of TTCF by a leupeptin-insensitive cysteine endopeptidase activity. (a) TTCF was digested in vitro in the presence of disrupted lysosomes (1-2 µg) in the presence or absence of iodoacetamide (1 mM), leupeptin, E64 or pepstatin (each at 0.1 mg/ml). Digestions were in 0.1 M NH4 acetate at pH 4.5 or Na2HPO4, pH 6.0 or 7.0. After 4 hours at 37°C, the reactions were separated by Tris-tricine SDS-PAGE and stained with Coomassie Blue. (b) Cleavage sites: TTCF digestion products were separated by SDS PAGE and electrophoretically transferred to nitrocellulose membrane. Individual fragments numbered 1-6 were subjected to 5 cycles of Edman degradation. N-terminal sequence obtained is shown in bold following upstream residues from TTCF (tetanus toxin numbering). The N-terminal sequence of His-tagged TTCF was obtained for fragments 1 and 3. (c) Residues Asn 1184 and Glu 1184 in TTCF were mutated to alanine (see Methods) and digestions performed as before. The mutation abolishes cleavage at the mutated site but not at the first site (doublet at 47 kD). In this experiment cleavage of the third site was minimal. • Figure 2: TTCF is processed by an asparaginyl endopeptidase. (a) Chromatography of the TTCF processing activity on Mono-S resin. Fractions eluted by NaCl gradient were incubated with the substrates Z-Ala-Ala-Asn-NHMec or Z-Phe-Arg-NHMec in the presence or absence of E64 (trans-epoxysuccinyl-L-leucylamido-(4-guanidino)butane). […] (b) Fractions as above were incubated with 10 µg TTCF in the presence or absence of E64 for 4 hours at 37°C prior to SDS-PAGE analysis. (c) Each fraction was analysed by SDS-PAGE and Western blotting. Electrophoretically transferred material was probed with an affinity purified antiserum raised against the peptide KGIGSGKVLKSGPQC from human legumain^1. • Figure 3: Peptide inhibitors of AEP block asparaginyl endopeptidase activity and TTCF processing in vitro and in vivo. (a) TTCF was digested with purified AEP (legumain from pig kidney) in the presence or absence of 0.2 mg/ml of the peptides indicated. […] (b) Purified AEP or a crude lysosomal protease mixture were incubated with Z-Ala-Ala-Asn-NHMec, Z-Phe-Arg-NHMec (cathepsins L&B) or Z-Val-Val-Ala NHMec (cathepsin S) in the presence of increasing concentrations of AENK or AEQK. Release of 7-amino-4-methyl coumarin was measured after 10, 20 or 30 minutes. […] At different times the cells were washed, fixed in 0.05 % glutaraldehyde and co-cultured with autologous TTCF specific T cell clones. […] Proteins obtained from commercial sources, as described in the literature or custom peptides were digested with purified pig kidney legumain at pH 5.5 in the presence of 1 mM DTT. […] When present peptide was maintained during antigen pulsing at 1 mg/ml (a) or 2 mg/ml (b). At different times the cells were washed, fixed in 0.05 % glutaraldehyde and antigen presentation measured using proliferation of different autologous TTCF-specific T cell clones. c, AEP pre-processing of TTCF speeds antigen presentation. […] Presentation was measured after 60 minutes of antigen pulsing using EBV B cells.
If AEP plays a role in TTCF processing in antigen presenting cells then sufficiently high levels of the competing AENK peptide might be expected to interfere with normal class II MHC loading of TTCF epitopes. Following a 15 minute preincubation with or without tetrapeptides, freshly isolated peripheral blood mononuclear cells (PBMC) were incubated with TTCF antigen in the continued presence or absence of the peptides. At different times, the cells were washed, fixed and then co-cultured with different autologous T cell clones to assess expression of different peptide/MHC complexes. […] At later times there was some recovery of presentation of these epitopes as expected for a competitive inhibitor. […]

[2] = tested on: purified AEP (legumain from pig kidney); experiment: Digestion of TTCF with purified AEP in the presence of tetrapeptides; type: biochemical; settings: 0.2 mg/ml peptide; Fig 3a
Procedure: The invention will now be described by reference to the following Examples and Figures wherein • Figure 1: Processing of TTCF by a leupeptin-insensitive cysteine endopeptidase activity. (a) TTCF was digested in vitro in the presence of disrupted lysosomes (1-2 µg) in the presence or absence of iodoacetamide (1 mM), leupeptin, E64 or pepstatin (each at 0.1 mg/ml). Digestions were in 0.1 M NH4 acetate at pH 4.5 or Na2HPO4, pH 6.0 or 7.0. After 4 hours at 37°C, the reactions were separated by Tris-tricine SDS-PAGE and stained with Coomassie Blue. (b) Cleavage sites: TTCF digestion products were separated by SDS PAGE and electrophoretically transferred to nitrocellulose membrane. Individual fragments numbered 1-6 were subjected to 5 cycles of Edman degradation. N-terminal sequence obtained is shown in bold following upstream residues from TTCF (tetanus toxin numbering). The N-terminal sequence of His-tagged TTCF was obtained for fragments 1 and 3. (c) Residues Asn 1184 and Glu 1184 in TTCF were mutated to alanine (see Methods) and digestions performed as before. The mutation abolishes cleavage at the mutated site but not at the first site (doublet at 47 kD). In this experiment cleavage of the third site was minimal. • Figure 2: TTCF is processed by an asparaginyl endopeptidase. (a) Chromatography of the TTCF processing activity on Mono-S resin. Fractions eluted by NaCl gradient were incubated with the substrates Z-Ala-Ala-Asn-NHMec or Z-Phe-Arg-NHMec in the presence or absence of E64 (trans-epoxysuccinyl-L-leucylamido-(4-guanidino)butane). […] (b) Fractions as above were incubated with 10 µg TTCF in the presence or absence of E64 for 4 hours at 37°C prior to SDS-PAGE analysis. (c) Each fraction was analysed by SDS-PAGE and Western blotting. Electrophoretically transferred material was probed with an affinity purified antiserum raised against the peptide KGIGSGKVLKSGPQC from human legumain^1. • Figure 3: Peptide inhibitors of AEP block asparaginyl endopeptidase activity and TTCF processing in vitro and in vivo. […] Release of 7-amino-4-methyl coumarin was measured after 10, 20 or 30 minutes. […] At different times the cells were washed, fixed in 0.05 % glutaraldehyde and antigen presentation measured using proliferation of different autologous TTCF-specific T cell clones. c, AEP pre-processing of TTCF speeds antigen presentation. […] Presentation was measured after 60 minutes of antigen pulsing using EBV B cells.
We decided to test the possibility that high concentrations of asparagine containing peptides might act as competitive inhibitors. […] To establish that inhibition of AEP was specific, we measured the hydrolysis of different synthetic peptide substrates in the presence and absence of these tetrapeptides.

[3] = tested on: EBV-transformed B cells / autologous TTCF-specific T cell clones; experiment: TTCF antigen presentation by EBV-transformed B cells, read out as proliferation of autologous T cell clones; type: cell-based, human; settings: EBV-B cells from donor, 2 mg/ml peptide; Fig 9b
Procedure: The invention will now be described by reference to the following Examples and Figures wherein • Figure 1: Processing of TTCF by a leupeptin-insensitive cysteine endopeptidase activity. (a) TTCF was digested in vitro in the presence of disrupted lysosomes (1-2 µg) in the presence or absence of iodoacetamide (1 mM), leupeptin, E64 or pepstatin (each at 0.1 mg/ml). Digestions were in 0.1 M NH4 acetate at pH 4.5 or Na2HPO4, pH 6.0 or 7.0. After 4 hours at 37°C, the reactions were separated by Tris-tricine SDS-PAGE and stained with Coomassie Blue. (b) Cleavage sites: TTCF digestion products were separated by SDS PAGE and electrophoretically transferred to nitrocellulose membrane. Individual fragments numbered 1-6 were subjected to 5 cycles of Edman degradation. N-terminal sequence obtained is shown in bold following upstream residues from TTCF (tetanus toxin numbering). The N-terminal sequence of His-tagged TTCF was obtained for fragments 1 and 3. (c) Residues Asn 1184 and Glu 1184 in TTCF were mutated to alanine (see Methods) and digestions performed as before. The mutation abolishes cleavage at the mutated site but not at the first site (doublet at 47 kD). In this experiment cleavage of the third site was minimal. • Figure 2: TTCF is processed by an asparaginyl endopeptidase. (a) Chromatography of the TTCF processing activity on Mono-S resin. Fractions eluted by NaCl gradient were incubated with the substrates Z-Ala-Ala-Asn-NHMec or Z-Phe-Arg-NHMec in the presence or absence of E64 (trans-epoxysuccinyl-L-leucylamido-(4-guanidino)butane). […] (c) Each fraction was analysed by SDS-PAGE and Western blotting. […] Release of 7-amino-4-methyl coumarin was measured after 10, 20 or 30 minutes. […] At different times the cells were washed, fixed in 0.05 % glutaraldehyde and antigen presentation measured using proliferation of different autologous TTCF-specific T cell clones. c, AEP pre-processing of TTCF speeds antigen presentation. […] Presentation was measured after 60 minutes of antigen pulsing using EBV B cells. […]

`C[C@H](NC(=O)OCC1c2ccccc2-c2ccccc21)C(=O)N[C@@H](CCC(=O)O)C(=O)N[C@@H](CCC(N)=O)C(=O)N[C@@H](CCCCN)C(N)=O` [AEQK] (Fmoc-AEQK-NH2) was tested, and the “presentation to most clones (eg AK 5, 90 & 6) at early times” value [1] was “detectable”, the “inhibition of processing of TTCF by AEP” value [2] was “did not inhibit” and the “antigen presentation by EBV-B cells” value [3] was “virtually no effect”.
